Experimental data published in patent publication US10653717B2, “Antibiotic compositions” (priority 2016, dated 2020).
pIC50: −log10 of the molar value. Where two headings read alike, the source gives them in different places.

Tests used:
[1] = system: KP-2: K. pneumonia subsp. pneumonia 0322#; experiment: MIC of silver with antibiotics on clinical isolated MDR Gram-negative bacteria; type: cell-based, Klebsiella pneumonia; settings: antibiotic 4 μM
Experimental: (§1) There are five clinically most difficult-to-treat MDR Gram-negative pathogen species: Klebsiella pneumonia, Acinetobacter baumannii, Pseudomonas aeruginosa, Enterobacter cloacae and Escherichia coli. One strain from each species was isolated, and overnight cultures were diluted 1:1000 times in LB medium, and treated with serial concentrations of Ag^+ and antibiotics in combinations for 24 h (Table 10).
(§2) Five clinical isolated MDR Gram-negative strains were grown until an OD600 nm of 0.4, and were diluted 1:1,000 into 100 μl LB medium in 96 micro-well plates. […] The cultures treated with the same serial dilutions of 100 μl ebselen and silver nitrate were used as the positive control.

[2] = system: ECO-1: Escherichia coli 1139#; experiment: as above; type: cell-based; settings: antibiotic 4 μM
Experimental: as §1, §2

[3] = system: PA-1: Pseudomonas aeruginosa 1298#; experiment: as above; type: cell-based; settings: antibiotic 4 μM
Experimental: as §1, §2

[4] = system: AB-1: Acinetobacter baumannii H#; experiment: as above; type: cell-based; settings: antibiotic 4 μM
Experimental: as §1, §2

[5] = system: ECL-2: E. cloacae 2301#; experiment: as above; type: cell-based, Enterobacter cloacae; settings: antibiotic 4 μM
Experimental: as §1, §2

[6] = system: ECO-4: MG1655 (ATCC 700926)
Experimental: (§3) There are five most difficult-to-treat MDR Gram-negative pathogen species in the clinic, which are also typical GSH-positive bacteria: Klebsiella pneumonia, Acinetobacter baumannii, Pseudomonas aeruginosa, Enterobacter cloacae and Escherichia coli. Two strains of each species were isolated, overnight cultures were diluted 1:1000 times in LB medium, and treated with Ag^+ with a serial concentration of ebselen in combination for 16 h. […] Among these five species, A. baumannii and E. cloacae are very readily formed drug-resistant strains, which are needed to be treated by or the fourth-generation cephalosporin in the clinic, including imipenem, cefepime, and cefotaxime, etc.
(§4) Ten clinical isolated MDR Gram-negative (GSH-positive) strains were grown until an OD600 nm of 0.4 and were diluted 1:100 into 100 μl of LB medium in 96 micro-well plates. Serial dilutions of 100 μl ebselen and AgNO3 were added to the individual wells. […] The culture treated with 0.8% (v/v) DMSO was used as a control.

[7] = system: KP-1: Klebsiella pneumoniae subsp. pneumoniae 13#
Experimental: as §3, §4

[8] = target: E. coli Trx1 (Escherichia coli, UniProt P0AA25)
E. coli Trx1, sequence (P0AA25 2-109): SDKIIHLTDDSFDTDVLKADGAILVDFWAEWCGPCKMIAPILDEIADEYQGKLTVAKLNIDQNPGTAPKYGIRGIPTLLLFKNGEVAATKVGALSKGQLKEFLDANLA
Experimental: (§5) Since ebselen is a known reversible competitive inhibitor of bacterial TrxR, the effect of Ag^+ on the activity of E. coli TrxR and Trx was investigated.
(§6) Inhibition of recombinant bacterial TrxR by Silver was performed by using E. coli enzyme. The experiments were performed with 96 micro-well plates in the solution containing 50 mM Tris.HCl (pH 7.5), 200 μM NADPH, 1 mM EDTA, 1 mM DTNB, in the presence of 5 μM E. coli Trx. The absorbance at 412 nm was measured for 5 min with a VERSA micro-well plate reader and the slope of initial 2 min was used to represent TrxR activity. The Trx activity was detected by this method, coupled with the use of 100 nM E. coli TrxR instead of 5 μM E. coli Trx in the reaction mixture.

[9] = target: E. coli TrxR (Escherichia coli, UniProt P0A9P4)
E. coli TrxR, sequence (P0A9P4 2-321 limits assumed): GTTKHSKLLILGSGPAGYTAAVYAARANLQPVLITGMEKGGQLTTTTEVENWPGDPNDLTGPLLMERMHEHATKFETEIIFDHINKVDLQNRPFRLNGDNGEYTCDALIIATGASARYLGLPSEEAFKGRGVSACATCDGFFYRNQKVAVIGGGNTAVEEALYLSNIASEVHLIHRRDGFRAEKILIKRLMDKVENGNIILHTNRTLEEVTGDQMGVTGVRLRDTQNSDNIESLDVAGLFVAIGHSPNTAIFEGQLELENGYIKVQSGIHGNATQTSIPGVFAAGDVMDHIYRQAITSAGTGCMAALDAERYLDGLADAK
Experimental: as §5, §6

Row | Compound | MIC of silver in the presence of different antibiotics [1] [µM] | MIC of silver in the presence of different antibiotics [2] [µM] | MIC of silver in the presence of different antibiotics [3] [µM] | MIC of silver in the presence of different antibiotics [4] [µM] | MIC of silver in the presence of different antibiotics [5] [µM] | MIC of silver in the presence of ebselen ([6]; Ebselen 0 μM) [µM] | MIC of silver in the presence of ebselen ([6]; Ebselen 1 μM) [µM] | MIC of silver in the presence of ebselen ([6]; Ebselen 2 μM) [µM] | MIC of silver in the presence of ebselen ([6]; Ebselen 4 μM) [µM] | MIC of silver in the presence of ebselen ([7]; Ebselen 0 μM) [µM] | MIC of silver in the presence of ebselen ([7]; Ebselen 1 μM) [µM] | MIC of silver in the presence of ebselen ([7]; Ebselen 2 μM) [µM] | MIC of silver in the presence of ebselen ([7]; Ebselen 4 μM) [µM] | reversibility of the inhibition of Trx1 ([8]; Trx1 activity after desalting) | activity of Trx ([8]; along with the increase of Ag^+ concentration, 10 μM Trx1) | inhibitory efficiency toward TrxR ([9]; in the presence of reduced E. coli Trx1) | pIC50 ([9]; read-out: IC50 on E. coli TrxR, 100 nM NADPH-pre-incubated E. coli TrxR)
1 | O=c1c2ccccc2[se]n1-c1ccccc1 [ebselen, 2-phenyl-1,2-benzisoselenazol-3(2H)-one] | 40 | 5 | 20 | 10 | 10 |  |  |  |  |  |  |  |  |  |  |  | 
2 | O=[N+]([O-])[O-].[Ag+] [silver, silver nitrate] |  |  |  |  |  | 40 | 20 | 10 | 5 | 80 | 80 | 40 | 10 | irreversible | decreased | decreased | ~7.30
